Here are results for 8 molecules from patent US20120214784A1, “SPIROPIPERIDINE COMPOUNDS AS ORL-1 RECEPTOR ANTAGONISTS” (ELI LILLY AND COMPANY, priority 2009, published 2012).

Broadly, the Ki is a dissociation constant, usually derived from enzyme kinetics or from competition with a known ligand. The low end stands for higher affinity, the high end for lower affinity.

Data set [1] concerns NIH-Swiss mice; 129S6 wild type and nociceptin/ORL1 receptor knockout mice. The data set can be described thus: Forced-swim test in mice (mFST). The format is in vivo, mouse. The source says: Forced-Swim Test in Mice (mFST) mFST is an established in vivo assay for antidepressant activity (Li et al. J Pharmacol Exp Ther. 319(1):254-9, 2006.). […] The mFST was used to evaluate potential antidepressant-like activity of novel nociceptin/ORL1 antagonists according to previously published methods (Li et al. J Pharmacol Exp Ther. 319(1):254-9, 2006.). Briefly, male NIH-Swiss mice (Harlan Sprague-Dawley, Indianapolis, Ind.) weighing between 25-30 g are used. Group housed animals are removed from the vivarium to the testing area in their own cages and allowed to adapt to the new environment for at least 1 hour before testing. Alternatively, male 129S6 wild type and nociceptin/ORL1 receptor knockout mice were used to confirm dependence of the response to compound was nociceptin/ORL1 receptor dependent. All compounds are prepared in 20% Captisol, 25 mM phosphate buffer, pH 2.0 on the day of use. Mice are placed in a cylinder (diameter: 10 cm; height: 25 cm) filled with 6 cm of water (22-25° C.) for 6 min. The duration of immobility during the last 4 min. of the 6 min. period of the test was scored. A mouse is recorded as immobile when floating motionless or making only those movements necessary to keep its head above water.

The target in data set [2] is T1, nociceptin/ORL1 receptors (Rattus norvegicus, UniProt P35370).
T1 construct: rats are sacrificed by cervical dislocation and the hypothalamus is removed; from tissue; host or cells: rat hypothalamus (in vivo occupancy)
Put plainly: In vivo receptor occupancy (LC/MS/MS, RO Tracer) in hypothalamus.

Data set [3] is described as follows: Rat hepatic microsomal glutathione trapping assay. The format is in vitro ADME. As to conditions: hepatic microsomal homogenate, glutathione as nucleophile. The source says:
Assuming that reactive metabolites may play a role in clinical IDRs, minimizing the potential for oxidative bioactivation has been proposed as a means of improving the overall safety profile of compounds containing structural features associated with such reactivity. (see Baillie, Thomas A., Approaches to the Assessment of Stable and Chemically Reactive Drug Metabolites in Early Clinical Trials, Chemical Research in Toxicology, vol 22(2) 2009.) To this end, representative compounds of the present invention and related compounds are screened using a rat hepatic microsomal trapping assay, using glutathione as an endogenous nucleophile, to understand the potential for oxidative bioactivation of the thienyl moiety. […] Of the compounds tested, those wherein R^2a and R^2b are fluoro are found to not show glutathione conjugate formation.

Data set [4] has as its system wild type and ORL knockout mice. The data set can be described thus: Blockade of fasting-induced hyperphagia in mice. The data set is classed as in vivo, mouse. The source says:
Blockade of fasting-induced hyperphagia in rats is an accepted model for hyperphagic eating disorders. […] Mice are individually housed a minimum of 3 days prior to the onset of testing to eliminate any effects of stress due to the change from group to individual housing. Three mice/genotype are randomly assigned to each treatment group on the test day. Pre-fast body weight measurements are taken, and food is then removed from cages overnight. Mice are fasted for approximately 15 hr. The next morning, the mice are given one of three doses of drug or vehicle via oral gavage 30 min. prior to gaining access to food. Drugs are dissolved in 20% Captisol dissolved in 25 mM phosphate buffer, pH 2.0. Measurements of body weight are taken immediately prior to drug treatment or 24 hr. after access to food is restored. […] Measurements of food intake are recorded 1 hr following access to food, as indicated, by weight of food remaining at 1 hr. It should be noted that food intake measured is during the light phase, a time during which mice are typically at rest and not normally eating. Following initial testing, mice are rested for 1 week with access to unlimited chow.

Data set [5] has as its target T2, cloned human ORL1 receptors (Homo sapiens, UniProt P41146).
T2 construct: expressed in transfected cells; host or cells: CHO cells (membranes)
The data set can be described thus: [3H]-OFQ/nociceptin receptor binding assay. The procedure: Radioligand binding assays are commonly used to determine the affinity (Ki) or potency of a compound to bind to a particular receptor or target protein. A filtration-based [3H]-OFQ/nociceptin receptor binding assay is developed based on previous assay formats (Ardati A, Henningsen R A, Higelin J, Reinscheid R K, Civelli O, Monsma F J Jr. Mol. Pharmacol. 1997 May; 51(5):816-24.) with minor modifications. [3H]-OFQ/nociceptin binding assays are carried out in deep-well 96-well plates. [^3H]OFQ (final assay concentration 0.2 nM) competition studies are carried out with 5-10 μg of membrane protein (isolated from Chinese hamster ovary cells (CHO cells) expressing cloned human ORL1 receptors) in a final assay volume of 0.5 mL of buffer containing 20 mM HEPES, pH 7.4, 5 mM MgCl2, 1 mM EGTA, 100 mM NaCl, 0.1% bovine serum albumin. Samples are incubated for 60 min. at room temperature, which is found to be optimal for competition assays. The assays are terminated by filtration through glass fiber filters (Wallac filtermat A) [pretreated with 0.3% polyethylenimine (Sigma) for 1 hr] on a Tometc cell harvester, and the filters are washed three times with 5 mL of ice-cold 50 mM Tris.HCl, pH 7.4. Filtermats are then dried and imbedded with Meltilex scintillant A and the radioactivity counted in a Wallac Microbeta scintillation counter. Specific binding is determined by displacement with 100 nM unlabeled nociceptin. Curves are plotted as the percent of specific binding and IC50 values are determined using a sigmoidal dose response curve with variable slope. K, values are calculated from the IC50 by the equation of Cheng and Prusoff (Cheng, Y. C., and Prusoff, W. H., Biochem. Pharmacol. 22, 3099-3108 (1973)) where Ki=IC50×(1+D×Kd^−1)^−1. Similarly, Ki for the mu, kappa and delta opioids, serotonin, adrenergic, and muscarinic receptors may be determined using membranes expressing the desired receptor and appropriate corresponding radioligand competitor molecules.

Data set [6] concerns the target T3, cloned human ORL1/nociceptin receptors (Homo sapiens, UniProt P41146).
T3 construct: expressed in transfected cells
Put plainly: Functional blockade of agonist-mediated G-protein activation, GTP-γ-[35S] binding. The data set is classed as biochemical. From the text: Agonist-mediated stimulation of G-protein coupled receptors results in the activation of membrane associated Gαβγ-protein heterotrimer complexes, and represents the first step in the transduction of extracellular signals to modification of intracellular pathways. The first step in activation of receptor-mediated activation of Gαβγ-proteins heterotrimer is the exchange of Gα subunit bound guanosine diphoshpate (GDP) for guanosine triphosphate (GTP). The binding of GTP to the Gα subunit causes dissociation of the heterotrimer subunits, Gβ and Gγ, resulting in the modulation of several intracellular signaling cascades. Measurement of receptor-mediated G-protein activation can be measured using the non-hydrolyzable radiolabeled analog of GTP, GTP-γ-[35S]. Utilizing this methodology, antagonist affinity (Kb) is measured in membranes expressing cloned human ORL1/nociceptin receptors using a GTP-γ-[35S] binding assay according to previously described protocols with minor modifications (DeLapp et al., J Pharmacol Exp Ther. 1999 May; 289(2):946-55; Ozaki et al., Eur J Pharmacol. 2000 Aug. 18; 402(1-2):45-53). Assays are conducted in a 200-μl volume with the following buffer composition: 100 mM NaCl, 20 mM HEPES, 5 mM MgCl2, 1 mM EDTA, 0.1% BSA, 3 μM GDP, 0.5 nM [^35S]GTPγS. ORL1 receptor membrane suspension is added at a concentration of 20 μg protein per well and receptor stimulation is achieved using 300 nM nociceptin/OFQ. Wheat germ agglutinin coated SPA beads (Amersham, Arlington Hts., Ill.) are added at 1 mg per well to detect membrane-bound [^35S]GTPγS. Plates are sealed and incubated for 2 hr. at room temperature. Plates are then placed at 4° C. overnight to allow the SPA beads to settle and then counted in a Wallac Microbeta. Specific [^35S]GTPγS binding is determined as the difference in CPM observed in the absence and presence of 10 μM unlabeled GTPγS. Data are plotted as the percent of specific [^35S]GTPγS bound. Curves are plotted as the percent of specific binding and IC50 values are determined using a sigmoidal dose response curve with variable slope. Antagonist affinity (Kb) is estimated according to DeLapp et al., 1999 using a modification of the equation of Cheng and Prusoff (1973) where Kb=IC50×(1+D×EC50^−1)^−1.
(GTPγS resists hydrolysis and so accumulates on activated G proteins.)

The mark [7] stands for this setting: wild type mice, oral gavage 30 min. prior to food, food intake 1 hr.

Each structure is given as a SMILES string.

T1 sequence (P35370 whole entry): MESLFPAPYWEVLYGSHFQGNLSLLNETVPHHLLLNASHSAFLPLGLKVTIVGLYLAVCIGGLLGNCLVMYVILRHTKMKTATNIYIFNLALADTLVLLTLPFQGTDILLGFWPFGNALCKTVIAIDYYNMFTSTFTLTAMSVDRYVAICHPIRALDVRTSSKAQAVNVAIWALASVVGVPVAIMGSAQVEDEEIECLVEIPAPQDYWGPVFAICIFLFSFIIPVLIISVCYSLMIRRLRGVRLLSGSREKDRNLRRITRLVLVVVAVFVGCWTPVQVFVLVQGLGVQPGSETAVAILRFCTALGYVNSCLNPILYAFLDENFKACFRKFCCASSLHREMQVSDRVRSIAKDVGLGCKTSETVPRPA
T3 sequence (P41146 whole entry): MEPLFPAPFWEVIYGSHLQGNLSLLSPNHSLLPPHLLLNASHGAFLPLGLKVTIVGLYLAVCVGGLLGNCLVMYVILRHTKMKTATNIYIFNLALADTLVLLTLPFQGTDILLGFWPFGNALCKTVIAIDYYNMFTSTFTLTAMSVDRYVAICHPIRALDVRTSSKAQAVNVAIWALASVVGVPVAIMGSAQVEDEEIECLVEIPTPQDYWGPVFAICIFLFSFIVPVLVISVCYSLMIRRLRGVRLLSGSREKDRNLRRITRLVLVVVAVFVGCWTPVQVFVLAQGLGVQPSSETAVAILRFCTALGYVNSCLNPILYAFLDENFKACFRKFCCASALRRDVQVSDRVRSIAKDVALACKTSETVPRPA
T2 sequence (P41146 whole entry): as above

`CN(C)CCCN1c2ccccc2CCc2ccccc21` [imiprimine, reference compound]: the immobilization time entry in data set [1] (ORL-1 knockout mice) and in data set [1] (wild type mice) was “reduce immobilization times” in each case. On to `Cc1cccc2c1CC[C@@H](CN1CCC(c3c(Cl)cccc3Cl)CC1)C[C@H]2O` [SB612111, (−)-cis-1-methyl-7-[[4-(2,6-dichlorophenyl)piperidin-1-yl]methyl]-6,7,8,9-tetrahydro-5H-benzocyclohepten-5-ol, reference compound], for which, in data set [2] (iv, intravenously 30 mg/kg 1 hr. prior to RO Tracer, positive control), the receptor occupancy at 30 mg/kg was ~100%. For `Cc1nn(-c2c(F)cccc2C(N)=O)cc1CN1CCC2(CC1)OCCc1cc(F)sc12.O=C(O)C(O)C(O)C(=O)O` [Example 9, 3-fluoro-2-[4-[(2-fluorospiro[4,5-dihydrothieno[2,3-c]pyran-7,4′-piperidine]-1′-yl)methyl]-3-methyl-pyrazol-1-yl]benzamide (L)-Tartrate], the Glutathione conjugate formation result in data set [3] is reported as “Yes”.

For the molecule `Clc1cccc(N2CCNCC2)c1` [mCPP, meta-chlorophenylpiperazine, reference compound], the fasting-induced hyperphagia entry in data set [4] (ORL-1 knockout mouse strain) and in data set [4] (setting [7]) was “significantly reduce fasting induced hyperphagia” each time. `Cc1nn(-c2c(F)cccc2-n2ccnc2C)cc1CN1CCC2(CC1)OCC(F)(F)c1cc(Cl)sc12.O=C(O)C(O)C(O)C(=O)O` [Example 47, 2-Chloro-4,4-difluoro-1′-[[1-[2-fluoro-6-(2-methylimidazol-1-yl)phenyl]-3-methyl-pyrazol-4-yl]methyl]spiro[5H-thieno[2,3-c]pyran-7,4′-piperidine] (L)-Tartrate] returned a Ki in data set [5] of 0.26 nM. The receptor occupancy at 3 mg/kg in data set [2] (oral 3 mg/kg dose after 6 hr.) amounted to 84%. In data set [4] (setting [7]), the fasting-induced hyperphagia result is “substantially block fasting-induced hyperphagia”. In addition, the Kb in data set [6] was 0.15 nM. For `Cc1nn(-c2c(F)cccc2C(N)=O)cc1CN1CCC2(CC1)OCC(F)(F)c1cc(F)sc12.O=C(O)C(O)C(O)C(=O)O` [Example 18, 3-fluoro-2-[3-methyl-4-[(2,4,4-trifluorospiro[5H-thieno[2,3-c]pyran-7,4′-piperidine]-1′-yl)methyl]pyrazol-1-yl]benzamide (L)-Tartrate], the Glutathione conjugate formation entry in data set [3] is reported as “No”. Still for that read-out and setting: to `Cc1nn(-c2c(F)cccc2C(N)=O)cc1CN1CCC2(CC1)OCCc1c2sc(F)c1F.O=C(O)C(O)C(O)C(=O)O` [3-fluoro-2-[4-[(2,3-difluorospiro[4,5-dihydrothieno[2,3-c]pyran-7,4′-piperidine]-1′-yl)methyl]-3-methyl-pyrazol-1-yl]benzamide (L) Tartrate, reference compound] belongs “Yes”. In the case of `Cc1nn(-c2c(F)cccc2CO)cc1CN1CCC2(CC1)OCC(F)(F)c1cc(Cl)sc12.O=C(O)C(O)C(O)C(=O)O` [Example 1, [2-[4-[(2-Chloro-4,4-difluoro-spiro[5H-thieno[2,3-c]pyran-7,4′-piperidine]-1′-yl)methyl]-3-methyl-pyrazol-1-yl]-3-fluoro-phenyl]methanol (L)-Tartrate], the fasting-induced hyperphagia entry in data set [4] (setting [7]) is given as “substantially block fasting-induced hyperphagia”.
